Data reported in patent US9355787B2, “Method of forming rigid imide material from soluble amide ester functionalized precursors” (Colorado School of Mines, priority 2013, dated 2016).

Assay: Qualitative solubility of diester-diacid monomers in organic solvents

| Molecule | Solubility of monomer or dianhydride, in words |
| --- | --- |
| CCCCCCOC(=O)c1ccc2c3ccc(C(=O)O)c4c(C(=O)OCCCCCC)ccc(c5ccc(C(=O)O)c1c52)c43 [Monomer 2c, di-N-hexyl ester of perylene-3,4,9,10 tetracarboxylic acid] | soluble in polar aprotic solvents like NMP, and DMSO |
| CCCCC(CC)COC(=O)c1ccc2c3ccc(C(=O)O)c4c(C(=O)OCC(CC)CCCC)ccc(c5ccc(C(=O)O)c1c52)c43 (stereo not drawn) [Monomer 2d, di-2-ethy hexyl ester of perylene-3,4,9,10 tetracarboxylic acid] | soluble in polar aprotic solvents like NMP, and DMSO |
| O=C1OC(=O)c2ccc3c4ccc5c6c(ccc(c7ccc1c2c73)c64)C(=O)OC5=O [PTDA, 3,4,9,10-perylenetetracarboxylic dianhydride] | insoluble in all solvents |
| di-ethyl ester of NTDA [Monomer 1b] | soluble in most of the organic solvents |
| di-hexyl ester of NTDA [Monomer 1c] | soluble in most of the organic solvents |
| di-methyl ester of NTDA [Monomer 1a] | soluble in most of the organic solvents |
